Reference: article PMC5218480 (PLoS ONE, 2017)

System: MV-4-11 cells
Experiment: Gene expression microarray analysis (Affymetrix PrimeView) and GSEA
Assay type: cell-based, human
Design: RFU PODN (11730768_x_at) / Fold change /veh PODN (11730768_x_at) / RFU LINC00158 (11744669_a_at) / Fold change /veh LINC00158 (11744669_a_at) / RFU DUSP10 (11751237_a_at) / Fold change /veh DUSP10 (11751237_a_at) / RFU ID3 (11757404_x_at) / Fold change /veh ID3 (11757404_x_at) / RFU PLEKHG5 (11737974_s_at) / Fold change /veh PLEKHG5 (11737974_s_at) / RFU LRRC4B (11730491_at) / Fold change /veh LRRC4B (11730491_at) / RFU GIMAP4 (11747438_a_at) / Fold change /veh GIMAP4 (11747438_a_at) / RFU KRT8 (11758183_x_at) / Fold change /veh KRT8 (11758183_x_at) / RFU CNN1 (11734310_a_at) / Fold change /veh CNN1 (11734310_a_at) / RFU VPS37D (11726825_at) / Fold change /veh VPS37D (11726825_at) / RFU C10orf10 (11716522_x_at) / Fold change /veh C10orf10 (11716522_x_at) / RFU KIR2DL2 /// KIR2DL4 /// KIR2DL5A /// KIR2DL5B /// KIR2DS1 /// KIR2DS2 /// KIR2DS3 /// KIR2DS4 /// KIR3DL3 /// KIR3DL3 /// KIR3DS1 (11738374_at) / Fold change /veh KIR2DL2 /// KIR2DL4 /// KIR2DL5A /// KIR2DL5B /// KIR2DS1 /// KIR2DS2 /// KIR2DS3 /// KIR2DS4 /// KIR3DL3 /// KIR3DL3 /// KIR3DS1 (11738374_at) / RFU C1QL1 (11718748_at) / Fold change /veh C1QL1 (11718748_at) / RFU TMPRSS4 (11747572_a_at) / Fold change /veh TMPRSS4 (11747572_a_at) / RFU HAMP (11756126_x_at) / Fold change /veh HAMP (11756126_x_at) / RFU RNFT2 (11725882_a_at) / Fold change /veh RNFT2 (11725882_a_at) / RFU NR4A2 (11747474_a_at) / Fold change /veh NR4A2 (11747474_a_at) / RFU ABCC12 (11746883_a_at) / Fold change /veh ABCC12 (11746883_a_at) / RFU TMEM136 (11760407_x_at) / Fold change /veh TMEM136 (11760407_x_at) / RFU CLDN22 /// WWC2 (11732394_at) / Fold change /veh CLDN22 /// WWC2 (11732394_at) / RFU HLA-DPB1 (11760878_x_at) / Fold change /veh HLA-DPB1 (11760878_x_at) / RFU SPINT1 (11716480_a_at) / Fold change /veh SPINT1 (11716480_a_at) / RFU GAP43 (11754022_s_at) / Fold change /veh GAP43 (11754022_s_at) / RFU A4GNT (11735810_at) / Fold change /veh A4GNT (11735810_at) / RFU PRB3 (11715151_x_at) / Fold change /veh PRB3 (11715151_x_at) / RFU TUBB4B (11761932_at) / Fold change /veh TUBB4B (11761932_at) / RFU CAPN14 (11732068_a_at) / Fold change /veh CAPN14 (11732068_a_at) / RFU TMCC2 (11721928_a_at) / Fold change /veh TMCC2 (11721928_a_at) / RFU IRGQ (11745062_a_at) / Fold change /veh IRGQ (11745062_a_at) / RFU FAM174B (11720279_a_at) / Fold change /veh FAM174B (11720279_a_at) / RFU TMPRSS4 (11748680_a_at) / Fold change /veh TMPRSS4 (11748680_a_at) / RFU FAM212B (11763350_a_at) / Fold change /veh FAM212B (11763350_a_at) / RFU PLEKHG5 (11743358_a_at) / Fold change /veh PLEKHG5 (11743358_a_at) / RFU ZSCAN30 (11745921_a_at) / Fold change /veh ZSCAN30 (11745921_a_at) / RFU CMKLR1 (11741424_a_at) / Fold change /veh CMKLR1 (11741424_a_at) / RFU LOC101060620 /// MAPK8IP1 (11723275_at) / Fold change /veh LOC101060620 /// MAPK8IP1 (11723275_at) / RFU SPTSSB (11747773_x_at) / Fold change /veh SPTSSB (11747773_x_at) / RFU PRSS12 (11739890_at) / Fold change /veh PRSS12 (11739890_at) / RFU BIN1 (11741810_x_at) / Fold change /veh BIN1 (11741810_x_at) / RFU WNT11 (11732464_a_at) / Fold change /veh WNT11 (11732464_a_at) / RFU C10orf10 (11716521_a_at) / Fold change /veh C10orf10 (11716521_a_at) / RFU C5orf56 (11738089_at) / Fold change /veh C5orf56 (11738089_at) / RFU CYB561 (11721691_x_at) / Fold change /veh CYB561 (11721691_x_at) / RFU ANKRD19P (11752326_a_at) / Fold change /veh ANKRD19P (11752326_a_at) / RFU OR2T12 /// OR2T33 /// OR2T8 (11738714_s_at) / Fold change /veh OR2T12 /// OR2T33 /// OR2T8 (11738714_s_at) / RFU VCAN (11748164_a_at) / Fold change /veh VCAN (11748164_a_at) / RFU JSRP1 (11732532_at) / Fold change /veh JSRP1 (11732532_at) / RFU KRTAP10-11 (11738290_x_at) / Fold change /veh KRTAP10-11 (11738290_x_at) / RFU MYO3A (11730013_a_at) / Fold change /veh MYO3A (11730013_a_at) / RFU EBF3 (11725865_a_at) / Fold change /veh EBF3 (11725865_a_at) / RFU CAMK2N1 (11719241_x_at) / Fold change /veh CAMK2N1 (11719241_x_at) / RFU C5orf56 (11738088_a_at) / Fold change /veh C5orf56 (11738088_a_at) / RFU OLFML3 (11715873_a_at) / Fold change /veh OLFML3 (11715873_a_at) / RFU LOC100653217 /// NTM (11731650_a_at) / Fold change /veh LOC100653217 /// NTM (11731650_a_at) / RFU MAPK11 (11762145_a_at) / Fold change /veh MAPK11 (11762145_a_at) / RFU FIZ1 (11724087_x_at) / Fold change /veh FIZ1 (11724087_x_at) / RFU OASL (11726364_x_at) / Fold change /veh OASL (11726364_x_at) / RFU SOX15 (11748057_x_at) / Fold change /veh SOX15 (11748057_x_at) / RFU CD79A (11719716_a_at) / Fold change /veh CD79A (11719716_a_at) / RFU HIST1H1D (11736915_at) / Fold change /veh HIST1H1D (11736915_at) / RFU CASKIN2 (11723855_a_at) / Fold change /veh CASKIN2 (11723855_a_at) / RFU LOC730098 (11760151_x_at) / Fold change /veh LOC730098 (11760151_x_at) / RFU OR4N2 (11742367_at) / Fold change /veh OR4N2 (11742367_at) / RFU PRRT2 (11749266_a_at) / Fold change /veh PRRT2 (11749266_a_at) / RFU SNX32 (11753110_a_at) / Fold change /veh SNX32 (11753110_a_at) / RFU CDHR5 (11726645_a_at) / Fold change /veh CDHR5 (11726645_a_at) / RFU RCAN1 (11760418_a_at) / Fold change /veh RCAN1 (11760418_a_at) / RFU FAM167A (11723789_a_at) / Fold change /veh FAM167A (11723789_a_at) / RFU FAM26E (11764081_at) / Fold change /veh FAM26E (11764081_at) / RFU ISYNA1 (11749810_s_at) / Fold change /veh ISYNA1 (11749810_s_at) / RFU ACY1 (11761880_at) / Fold change /veh ACY1 (11761880_at) / RFU 11764098_at / Fold change /veh 11764098_at / RFU SAMD14 (11745864_x_at) / Fold change /veh SAMD14 (11745864_x_at) / RFU NPB (11741838_a_at) / Fold change /veh NPB (11741838_a_at) / RFU TMPRSS6 (11731388_a_at) / Fold change /veh TMPRSS6 (11731388_a_at) / RFU KRTAP10-2 (11738614_at) / Fold change /veh KRTAP10-2 (11738614_at) / RFU ARHGAP8 /// PRR5-ARHGAP8 (11727945_x_at) / Fold change /veh ARHGAP8 /// PRR5-ARHGAP8 (11727945_x_at) / RFU KRTAP5-7 /// NADSYN1 (11734609_at) / Fold change /veh KRTAP5-7 /// NADSYN1 (11734609_at) / RFU RASL12 (11751679_a_at) / Fold change /veh RASL12 (11751679_a_at) / RFU CDKN2B (11736163_a_at) / Fold change /veh CDKN2B (11736163_a_at) / RFU PRF1 (11729649_at) / Fold change /veh PRF1 (11729649_at) / RFU, ZNF638 /// ZNF638-IT1 / Fold change vs veh, ZNF638 /// ZNF638-IT1 / RFU, PANK3 / Fold change vs veh, PANK3 / RFU, SH3YL1 / Fold change vs veh, SH3YL1 / RFU, ZEB2 / Fold change vs veh, ZEB2 / RFU, NRIP1 / Fold change vs veh, NRIP1 / RFU, PTTG1IP / Fold change vs veh, PTTG1IP / RFU, CAPN2 / Fold change vs veh, CAPN2 / RFU, MED14 / Fold change vs veh, MED14 / RFU, SNORA58 / Fold change vs veh, SNORA58 / RFU, C1orf63 / Fold change vs veh, C1orf63 / RFU, LRRFIP1 / Fold change vs veh, LRRFIP1 / RFU, NDUFAF7 / Fold change vs veh, NDUFAF7 / RFU, SLC12A2 / Fold change vs veh, SLC12A2 / RFU, IBTK / Fold change vs veh, IBTK / RFU, ESF1 / Fold change vs veh, ESF1 / Fold change vs veh, TMEM50B / RFU, TAOK1 / Fold change vs veh, TAOK1 / RFU, ACBD3 / Fold change vs veh, ACBD3 / RFU, TMA16 / Fold change vs veh, TMA16 / RFU, RWDD3 / Fold change vs veh, RWDD3 / RFU, BCAT1 / Fold change vs veh, BCAT1 / RFU, EDEM3 / Fold change vs veh, EDEM3 / RFU, TMEM33 / Fold change vs veh, TMEM33 / RFU, WDR75 / Fold change vs veh, WDR75 / RFU, AHCTF1 / Fold change vs veh, AHCTF1 / RFU, TFRC / Fold change vs veh, TFRC / RFU, ZDHHC17 / Fold change vs veh, ZDHHC17 / RFU, NOM1 / Fold change vs veh, NOM1 / RFU, ARL8B / Fold change vs veh, ARL8B / RFU, ZBTB11 / Fold change vs veh, ZBTB11 / RFU, TAMM41 / Fold change vs veh, TAMM41 / RFU, KIAA1704 /// LOC100996395 / Fold change vs veh, KIAA1704 /// LOC100996395 / RFU, ING1 / Fold change vs veh, ING1 / RFU, TRMT61B / Fold change vs veh, TRMT61B / RFU, FUBP3 / Fold change vs veh, FUBP3 / RFU, TP53 / Fold change vs veh, TP53 / RFU, TNKS2 / Fold change vs veh, TNKS2 / RFU, ZFP14 / Fold change vs veh, ZFP14 / RFU, ACTR2 / Fold change vs veh, ACTR2 / RFU, PPP3R1 / Fold change vs veh, PPP3R1 / RFU, PIK3R1 / Fold change vs veh, PIK3R1 / RFU, HNRNPA1 / Fold change vs veh, HNRNPA1 / RFU, RNF170 / Fold change vs veh, RNF170 / RFU, ZNF28 / Fold change vs veh, ZNF28 / RFU, RNGTT / Fold change vs veh, RNGTT / RFU, OGT / Fold change vs veh, OGT / RFU, BRD1 / Fold change vs veh, BRD1 / RFU, MARS / Fold change vs veh, MARS / RFU, ZNF655 / Fold change vs veh, ZNF655 / RFU, FAHD1 / Fold change vs veh, FAHD1 / RFU, BDP1 / Fold change vs veh, BDP1 / RFU, LRRCC1 / Fold change vs veh, LRRCC1 / RFU, ARID1A / Fold change vs veh, ARID1A / RFU, ZNF146 / Fold change vs veh, ZNF146 / RFU, ZNF330 / Fold change vs veh, ZNF330 / RFU, GPN3 / Fold change vs veh, GPN3 / RFU, C9orf123 / Fold change vs veh, C9orf123 / RFU, N4BP2L2 / Fold change vs veh, N4BP2L2 / RFU, ARFIP1 / Fold change vs veh, ARFIP1 / RFU, FAM179B / Fold change vs veh, FAM179B / RFU, BCL10 / Fold change vs veh, BCL10 / RFU, UHRF1BP1L / Fold change vs veh, UHRF1BP1L / RFU, BET1 / Fold change vs veh, BET1 / RFU, CNOT2 / Fold change vs veh, CNOT2 / RFU, ZNF268 / Fold change vs veh, ZNF268 / Fold change vs veh, ZNF507 / RFU, DGCR2 / Fold change vs veh, DGCR2 / RFU, WDSUB1 / Fold change vs veh, WDSUB1 / Fold change vs veh, HSP90B1 /// MIR3652 / RFU, ADSS / Fold change vs veh, ADSS / RFU, GK / Fold change vs veh, GK / RFU, ZNF148 / Fold change vs veh, ZNF148 / RFU, TAF9 / Fold change vs veh, TAF9 / RFU, SLC1A5 / Fold change vs veh, SLC1A5 / RFU, SLMO2 / Fold change vs veh, SLMO2 / RFU, ABCC4 / Fold change vs veh, ABCC4 / RFU, LOC101060439 /// RAP1B / Fold change vs veh, LOC101060439 /// RAP1B / RFU, RFX7 / Fold change vs veh, RFX7 / RFU, GTPBP10 / Fold change vs veh, GTPBP10 / RFU, CNEP1R1 / Fold change vs veh, CNEP1R1 / RFU, BIVM-ERCC5 /// ERCC5 / Fold change vs veh, BIVM-ERCC5 /// ERCC5 / RFU, ILF3 / Fold change vs veh, ILF3 / RFU 11762660_at / Fold change /veh 11762660_at / RFU VCAN (11757783_s_at) / Fold change /veh VCAN (11757783_s_at) / RFU DDX43 (11728927_at) / Fold change /veh DDX43 (11728927_at) / RFU KRT8 (11758188_x_at) / Fold change /veh KRT8 (11758188_x_at) / RFU NKD1 (11759106_at) / Fold change /veh NKD1 (11759106_at) / RFU SRD5A1 (11742802_a_at) / Fold change /veh SRD5A1 (11742802_a_at) / RFU TPSAB1 /// TPSB2 (11721975_s_at) / Fold change /veh TPSAB1 /// TPSB2 (11721975_s_at) / RFU GSTM3 (11746129_a_at) / Fold change /veh GSTM3 (11746129_a_at) / RFU IL23R (11737362_x_at) / Fold change /veh IL23R (11737362_x_at) / RFU TMEM51 (11727254_a_at) / Fold change /veh TMEM51 (11727254_a_at) / RFU PIWIL2 (11732686_x_at) / Fold change /veh PIWIL2 (11732686_x_at) / RFU ORM1 (11744905_x_at) / Fold change /veh ORM1 (11744905_x_at) / RFU CCDC152 (11743942_at) / Fold change /veh CCDC152 (11743942_at) / RFU ECM1 (11717891_a_at) / Fold change /veh ECM1 (11717891_a_at) / RFU IL23R (11748794_a_at) / Fold change /veh IL23R (11748794_a_at) / RFU TNFAIP8L3 (11732012_x_at) / Fold change /veh TNFAIP8L3 (11732012_x_at) / RFU MBOAT4 (11741988_at) / Fold change /veh MBOAT4 (11741988_at) / RFU 11764193_at / Fold change /veh 11764193_at / RFU TMEM53 (11763286_at) / Fold change /veh TMEM53 (11763286_at) / RFU MAGEB2 (11727129_at) / Fold change /veh MAGEB2 (11727129_at) / RFU TMEM200A (11744735_a_at) / Fold change /veh TMEM200A (11744735_a_at) / RFU CCDC152 (11751479_a_at) / Fold change /veh CCDC152 (11751479_a_at) / RFU FAM211A (11726209_a_at) / Fold change /veh FAM211A (11726209_a_at) / RFU RGS16 (11746705_a_at) / Fold change /veh RGS16 (11746705_a_at) / RFU VCAN (11755009_s_at) / Fold change /veh VCAN (11755009_s_at) / RFU RHOB (11743442_s_at) / Fold change /veh RHOB (11743442_s_at) / RFU RGS16 (11720943_a_at) / Fold change /veh RGS16 (11720943_a_at) / RFU RGS16 (11720944_at) / Fold change /veh RGS16 (11720944_at) / RFU, VPS4B / Fold change vs veh, VPS4B / RFU, CREB1 / Fold change vs veh, CREB1 / RFU, DNAJC13 / Fold change vs veh, DNAJC13 / RFU, GNAQ / Fold change vs veh, GNAQ / RFU, CDK5R1 / Fold change vs veh, CDK5R1 / RFU, ZRANB3 / Fold change vs veh, ZRANB3 / RFU, CUL4A / Fold change vs veh, CUL4A / RFU, CCNY / Fold change vs veh, CCNY / RFU, UFL1 / Fold change vs veh, UFL1 / RFU, COG3 / Fold change vs veh, COG3 / RFU, DIAPH2 / Fold change vs veh, DIAPH2 / RFU, SKA2 / Fold change vs veh, SKA2 / RFU, AFF3 / Fold change vs veh, AFF3 / RFU, LMF1 / Fold change vs veh, LMF1 / RFU, IPO11 / Fold change vs veh, IPO11 / RFU, DFFB / Fold change vs veh, DFFB / RFU, FOXP1 / Fold change vs veh, FOXP1 / RFU, CARD8 / Fold change vs veh, CARD8 / RFU, STRN3 / Fold change vs veh, STRN3 / RFU, ADK / Fold change vs veh, ADK / RFU, RASSF2 / Fold change vs veh, RASSF2 / RFU, WIPF1 / Fold change vs veh, WIPF1 / RFU, LARP1B / Fold change vs veh, LARP1B / RFU, RASA1 / Fold change vs veh, RASA1 / RFU, RB1 / Fold change vs veh, RB1 / RFU, PPFIA1 / Fold change vs veh, PPFIA1 / RFU, MAT2A / Fold change vs veh, MAT2A / RFU, CCT5 / Fold change vs veh, CCT5 / RFU, WDR92 / Fold change vs veh, WDR92 / RFU, CUX1 / Fold change vs veh, CUX1 / RFU, TTC7A / Fold change vs veh, TTC7A / RFU, TMEM135 / Fold change vs veh, TMEM135 / RFU, DEPTOR / Fold change vs veh, DEPTOR / RFU, CPM / Fold change vs veh, CPM / RFU, DNAJB6 / Fold change vs veh, DNAJB6 / RFU, CACNA2D3 / Fold change vs veh, CACNA2D3 / RFU, DTX4 / Fold change vs veh, DTX4 / RFU, TFCP2 / Fold change vs veh, TFCP2 / RFU, GMCL1 /// GMCL1P1 / Fold change vs veh, GMCL1 /// GMCL1P1 / RFU, AEBP2 / Fold change vs veh, AEBP2 / RFU, SNHG1 /// SNORD22 /// SNORD25 /// SNORD26 /// SNORD27 /// SNORD28 /// SNORD29 /// SNORD31 / Fold change vs veh, SNHG1 /// SNORD22 /// SNORD25 /// SNORD26 /// SNORD27 /// SNORD28 /// SNORD29 /// SNORD31 / Fold change (Aza/veh), C12orf56 (ProbeSet 11735607_a_at) / Fold change (ACY-1035/veh), C12orf56 (ProbeSet 11735607_a_at) / Fold change (Aza/veh), FGFR1OP (ProbeSet 11751329_s_at) / Fold change (ACY-1035/veh), FGFR1OP (ProbeSet 11751329_s_at) / Fold change (Aza/veh), VPS36 (ProbeSet 11739960_a_at) / Fold change (ACY-1035/veh), VPS36 (ProbeSet 11739960_a_at) / RFU SYPL1 (11715823_x_at) / Fold change /veh SYPL1 (11715823_x_at) / RFU IGFBP7 (11715501_s_at) / Fold change /veh IGFBP7 (11715501_s_at) / RFU REEP3 (11722064_at) / Fold change /veh REEP3 (11722064_at) / RFU IGLL1 (11728026_x_at) / Fold change /veh IGLL1 (11728026_x_at): dose or concentration left out as unconfirmed
Details: MV-4-11 cells, 48 hours

Nc1ccc(-c2cccs2)cc1NC(=O)c1ccc2c(c1)cc(C1CC1)n2CCN1CCOCC1 [ACY-1035]
Fold change /veh GIMAP4 (11747438_a_at): 1.02
